Assay results reported in US20240327397A1, “Pesticidally Active Fused Bicyclic Heteroaromatic Compounds” (SYNGENTA CROP PROTECTION AG, priority 2021, published 2024).

Columns and labels:
Type in all cases: in vivo
[1] = system: Spodoptera littoralis (Eqyptian Cotton Leaf Worm); assay: Example B4: Spodoptera littoralis, sprayed cotton leaf discs, L1 larvae; conditions: foliar, 72 h, application rate 200 ppm, 3 days after infestation, versus untreated, read-out: control (at least one of mortality, anti-feedant effect, growth inhibition)
Procedure: Example B4: Spodoptera littoralis (Eqyptian Cotton Leaf Worm)
Cotton leaf discs were placed onto agar in 24-well microtiter plates and sprayed with aqueous test solutions prepared from 10'000 ppm DMSO stock solutions. After drying the leaf discs were infested with five L1 larvae. The samples were assessed for mortality, anti-feeding effect, and growth inhibition in comparison to untreated samples 3 days after infestation. Control of Spodoptera littoralis by a test sample is given when at least one of the categories mortality, anti-feedant effect, and growth inhibition is higher than the untreated sample.

[2] = system: Chilo suppressalis (Striped Rice Stemborer); assay: Example B1: Chilo suppressalis, artificial diet in 24-well plates, L2 larvae; conditions: 144 h, application rate 200 ppm, 6 days after infestation, versus untreated, read-out: control (at least one of mortality, anti-feedant effect, growth inhibition)
Procedure: Example B1: Chilo suppressalis (Striped Rice Stemborer)
24-well microtiter plates with artificial diet were treated with aqueous test solutions prepared from 10'000 ppm DMSO stock solutions by pipetting. After drying, the plates were infested with L2 larvae (6-8 per well). The samples were assessed for mortality, anti-feeding effect, and growth inhibition in comparison to untreated samples 6 days after infestation. Control of Chilo suppressalis by a test sample is given when at least one of the categories mortality, anti-feedant effect, and growth inhibition is higher than the untreated sample.

[3] = system: Plutella xylostella (Diamond Back Moth); assay: Example B3: Plutella xylostella, artificial diet in 24-well plates, eggs; conditions: 192 h, application rate 200 ppm, 8 days after infestation, versus untreated, read-out: effect in at least one of the two categories (mortality or growth inhibition)
Procedure: Example B3: Plutella xylostella (Diamond Back Moth)
24-well microtiter plates with artificial diet were treated with aqueous test solutions prepared from 10'000 ppm DMSO stock solutions by pipetting. After drying, Plutella eggs were pipetted through a plastic stencil onto a gel blotting paper and the plate was closed with it. The samples were assessed for mortality and growth inhibition in comparison to untreated samples 8 days after infestation.

[4] = system: Diabrotica Balteata (Corn Root Worm); assay: Example B2: Diabrotica balteata, sprayed maize sprouts on agar, L2 larvae; conditions: 96 h, application rate 200 ppm, 4 days after infestation, versus untreated, read-out: effect in at least one of the two categories (mortality or growth inhibition)
Procedure: Example B2: Diabrotica Balteata (Corn Root Worm)
Maize sprouts placed onto an agar layer in 24-well microtiter plates were treated with aqueous test solutions prepared from 10'000 ppm DMSO stock solutions by spraying. After drying, the plates were infested with L2 larvae (6 to 10 per well). The samples were assessed for mortality and growth inhibition in comparison to untreated samples 4 days after infestation.

C[C@H](NC1=N[S@@](C)(=O)=Nc2c(Br)cc(Br)cc21)c1ncnn1-c1ccc(C#N)cn1 (single isomer, unassigned) [P6]
≥ 80%: percent control (mortality, anti-feedant effect or growth inhibition) at 200 ppm [1] | percent control (mortality, anti-feedant effect or growth inhibition) at 200 ppm [2] | percent effect (mortality or growth inhibition) at 200 ppm [3] | percent effect (mortality or growth inhibition) at 200 ppm [4]

C[C@H](NC1=N[S@](C)(=O)=Nc2c(Br)cc(Br)cc21)c1ncnn1-c1ccc(C#N)cn1 (single isomer, unassigned) [P7]
≥ 80%: percent control (mortality, anti-feedant effect or growth inhibition) at 200 ppm [1] | percent control (mortality, anti-feedant effect or growth inhibition) at 200 ppm [2] | percent effect (mortality or growth inhibition) at 200 ppm [3] | percent effect (mortality or growth inhibition) at 200 ppm [4]

C[C@H](NC1=N[S@](C)(=O)=Nc2ccc(Br)cc21)c1ncnn1-c1ccc(C#N)cn1 (single isomer, unassigned) [P8]
≥ 80%: percent control (mortality, anti-feedant effect or growth inhibition) at 200 ppm [1] | percent control (mortality, anti-feedant effect or growth inhibition) at 200 ppm [2] | percent effect (mortality or growth inhibition) at 200 ppm [3]

C[C@H](NC1=N[S@@](C)(=O)=Nc2ccc(Br)cc21)c1ncnn1-c1ccc(C#N)cn1 (single isomer, unassigned) [P9]
≥ 80%: percent control (mortality, anti-feedant effect or growth inhibition) at 200 ppm [1] | percent control (mortality, anti-feedant effect or growth inhibition) at 200 ppm [2] | percent effect (mortality or growth inhibition) at 200 ppm [3] | percent effect (mortality or growth inhibition) at 200 ppm [4]

CC(NC1=CS(C)(=O)=Nc2c1cc(C(F)(F)F)cc2C(F)(F)F)c1ncnn1-c1ncccn1 (stereo not shown) [P2, 3-methyl-3-oxo-N-[1-(2-pyrimidin-2-yl-1,2,4-triazol-3-yl)ethyl]-8,10-bis(trifluoromethyl)-3λ^6-thia-2-azabicyclo[4.4.0]deca-1(6),2,4,7,9-pentaen-5-amine]
≥ 80%: percent control (mortality, anti-feedant effect or growth inhibition) at 200 ppm [1] | percent control (mortality, anti-feedant effect or growth inhibition) at 200 ppm [2] | percent effect (mortality or growth inhibition) at 200 ppm [3] | percent effect (mortality or growth inhibition) at 200 ppm [4]

CC(NC1=CS(C)(=O)=Nc2c1cc(C(F)(F)F)cc2C(F)(F)F)c1ncnn1-c1ccc(C#N)cn1 (stereo not shown) [P3]
≥ 80%: percent control (mortality, anti-feedant effect or growth inhibition) at 200 ppm [1] | percent control (mortality, anti-feedant effect or growth inhibition) at 200 ppm [2]

CC(NC1=NS(C)(=O)=Nc2c(Br)cc(Br)cc21)c1ncnn1-c1ccc(C#N)cn1 (stereo not shown) [P4, 6-[5-[1-[(8,10-dibromo-3-methyl-3-oxo-3λ^6-thia-2,4-diazabicyclo[4.4.0]deca-1(10),2,4,6,8-pentaen-5-yl)amino]ethyl]-1,2,4-triazol-1-yl]pyridine-3-carbonitrile]
≥ 80%: percent control (mortality, anti-feedant effect or growth inhibition) at 200 ppm [1] | percent control (mortality, anti-feedant effect or growth inhibition) at 200 ppm [2] | percent effect (mortality or growth inhibition) at 200 ppm [3] | percent effect (mortality or growth inhibition) at 200 ppm [4]

C[C@H](NC1=NS(C)(=O)=Nc2c(Br)cc(Br)cc21)c1ncnn1-c1ccc(C#N)cn1 (stereo partly drawn) [P5, 6-[5-[(1S)-1-[(8,10-dibromo-3-methyl-3-oxo-3λ^6-thia-2,4-diazabicyclo[4.4.0]deca-1(10),2,4,6,8-pentaen-5-yl)amino]ethyl]-1,2,4-triazol-1-yl]pyridine-3-carbonitrile]
≥ 80%: percent control (mortality, anti-feedant effect or growth inhibition) at 200 ppm [1] | percent control (mortality, anti-feedant effect or growth inhibition) at 200 ppm [2] | percent effect (mortality or growth inhibition) at 200 ppm [3] | percent effect (mortality or growth inhibition) at 200 ppm [4]

C[C@H](NC1=NS(C)(=O)=Nc2c(Br)cc(Br)cc21)c1ncnn1-c1cnccn1 (stereo partly drawn) [P11, 8,10-dibromo-3-methyl-3-oxo-N-[(1S)-1-(2-pyrazin-2-yl-1,2,4-triazol-3-yl)ethyl]-3λ^6-thia-2,4-diazabicyclo[4.4.0]deca-1(6),2,4,7,9-pentaen-5-amine]
≥ 80%: percent control (mortality, anti-feedant effect or growth inhibition) at 200 ppm [1] | percent control (mortality, anti-feedant effect or growth inhibition) at 200 ppm [2] | percent effect (mortality or growth inhibition) at 200 ppm [3] | percent effect (mortality or growth inhibition) at 200 ppm [4]

C[C@H](NC1=NS(C)(=O)=Nc2c(Cl)cc(C(F)(F)F)cc21)c1nccnc1-c1cnccn1 (stereo partly drawn) [P12, 10-chloro-3-methyl-3-oxo-N-[(1S)-1-(3-pyrazin-2-ylpyrazin-2-yl)ethyl]-8-(trifluoromethyl)-3λ^6-thia-2,4-diazabicyclo[4.4.0]deca-1(6),2,4,7,9-pentaen-5-amine]
≥ 80%: percent control (mortality, anti-feedant effect or growth inhibition) at 200 ppm [1] | percent effect (mortality or growth inhibition) at 200 ppm [3] | percent effect (mortality or growth inhibition) at 200 ppm [4]

C[C@H](NC1=NS(C)(=O)=Nc2c(Cl)cc(C(F)(F)F)cc21)c1ncnn1-c1ccc(C#N)cn1 (stereo partly shown) [P15]
≥ 80%: percent control (mortality, anti-feedant effect or growth inhibition) at 200 ppm [1] | percent effect (mortality or growth inhibition) at 200 ppm [3] | percent effect (mortality or growth inhibition) at 200 ppm [4]

C[C@H](NC1=NS(C)(=O)=Nc2c1cc(Cl)cc2C(F)(F)F)c1ncnn1-c1cnccn1 (stereo partly drawn) [P17, 8-chloro-3-methyl-3-oxo-N-[(1S)-1-(2-pyrazin-2-yl-1,2,4-triazol-3-yl)ethyl]-10-(trifluoromethyl)-3λ^6-thia-2,4-diazabicyclo[4.4.0]deca-1(6),2,4,7,9-pentaen-5-amine]
≥ 80%: percent control (mortality, anti-feedant effect or growth inhibition) at 200 ppm [1] | percent effect (mortality or growth inhibition) at 200 ppm [3] | percent effect (mortality or growth inhibition) at 200 ppm [4]

C[C@H](NC1=NS(C)(=O)=Nc2c1cc(Cl)cc2C(F)(F)F)c1nccnc1-c1cnccn1 (stereo partly drawn) [P19, 8-chloro-3-methyl-3-oxo-N-[(1S)-1-(3-pyrazin-2-ylpyrazin-2-yl)ethyl]-10-(trifluoromethyl)-3λ^6-thia-2,4-diazabicyclo[4.4.0]deca-1(6),2,4,7,9-pentaen-5-amine]
≥ 80%: percent control (mortality, anti-feedant effect or growth inhibition) at 200 ppm [1] | percent control (mortality, anti-feedant effect or growth inhibition) at 200 ppm [2] | percent effect (mortality or growth inhibition) at 200 ppm [3] | percent effect (mortality or growth inhibition) at 200 ppm [4]

C[C@@H](c1ncnn1-c1cnccn1)N(C)C1=NS(C)(=O)=Nc2c1cc(Cl)cc2C(F)(F)F (stereo partly drawn) [P20, 8-chloro-N,3-dimethyl-3-oxo-N-[(1S)-1-(2-pyrazin-2-yl-1,2,4-triazol-3-yl)ethyl]-10-(trifluoromethyl)-3λ^6-thia-2,4-diazabicyclo[4.4.0]deca-1(6),2,4,7,9-pentaen-5-amine]
≥ 80%: percent control (mortality, anti-feedant effect or growth inhibition) at 200 ppm [1] | percent effect (mortality or growth inhibition) at 200 ppm [3] | percent effect (mortality or growth inhibition) at 200 ppm [4]
